Experimental data published in publication PMC9276671, “A first-in-human Phase I dose-escalation trial of the novel therapeutic peptide, ALM201, demonstrates a favourable safety profile in unselected patients with ovarian cancer and other advanced solid tumours” (British Journal of Cancer, 2022).
No end group written: not given here.

Assay: Plasma pharmacokinetics of ALM201 in Phase I patients (validated LC-MS/MS, Phoenix WinNonlin)
Settings: human, plasma, sc; for Tmax: median; for Tmax / AUC(0-t) / Cmax: plasma LC-MS/MS; for AUC(0-t): AUC0-t; for AUC(0-t) / Cmax: Gmean (CV)
[1] = 300 mg, 300 mg SC, day 1 cycle 1, n = 3
[2] = 300 mg, 300 mg SC, day 3 cycle 1, n = 3
[3] = 300 mg, 300 mg SC, day 18 cycle 2, n = 3
[4] = 300 mg, 300 mg SC, day 18 cycle 4, n = 1
[5] = 300 mg, 300 mg SC, day 18 cycle 6, n = 1

IRQQPRDPPTETLELEVSPDPAS [ALM201]
level at 6 h (200 mg, Plasma concentration, geometric mean (CV%), 200 mg SC, day 1 cycle 1, 6 h after dosing, n = 4, LC-MS/MS): 518 ng/mL
level at 0.5 h (200 mg, Plasma concentration, geometric mean (CV%), 200 mg SC, day 3 cycle 1, 0.5 h after dosing, n = 4, LC-MS/MS): 1090 ng/mL
level at 1 h (200 mg, Plasma concentration, geometric mean (CV%), 200 mg SC, day 3 cycle 1, 1 h after dosing, n = 3, LC-MS/MS): 1410 ng/mL
level at 1.5 h (200 mg, Plasma concentration, geometric mean (CV%), 200 mg SC, day 3 cycle 1, 1.5 h after dosing, n = 4, LC-MS/MS): 1320 ng/mL
level at 2 h (200 mg, Plasma concentration, geometric mean (CV%), 200 mg SC, day 3 cycle 1, 2 h after dosing, n = 4, LC-MS/MS): 1540 ng/mL
level at 3.5 h (200 mg, Plasma concentration, geometric mean (CV%), 200 mg SC, day 3 cycle 1, 3.5 h after dosing, n = 4, LC-MS/MS): 1250 ng/mL
level at 5 h (200 mg, Plasma concentration, geometric mean (CV%), 200 mg SC, day 3 cycle 1, 5 h after dosing, n = 4, LC-MS/MS): 958 ng/mL
level at 0.5 h (200 mg, Plasma concentration, geometric mean (CV%), 200 mg SC, day 18 cycle 1, 0.5 h after dosing, n = 3, LC-MS/MS): 811 ng/mL
level at 1 h (200 mg, Plasma concentration, geometric mean (CV%), 200 mg SC, day 18 cycle 1, 1 h after dosing, n = 3, LC-MS/MS): 1260 ng/mL
level at 1.5 h (200 mg, Plasma concentration, geometric mean (CV%), 200 mg SC, day 18 cycle 1, 1.5 h after dosing, n = 2 values (CV NC), LC-MS/MS): 1670 ng/mL
level at 2 h (200 mg, Plasma concentration, geometric mean (CV%), 200 mg SC, day 18 cycle 1, 2 h after dosing, n = 2 values (CV NC), LC-MS/MS): 1580 ng/mL
level at 3.5 h (200 mg, Plasma concentration, geometric mean (CV%), 200 mg SC, day 18 cycle 1, 3.5 h after dosing, n = 3, LC-MS/MS): 1130 ng/mL
level at 5 h (200 mg, Plasma concentration, geometric mean (CV%), 200 mg SC, day 18 cycle 1, 5 h after dosing, n = 3, LC-MS/MS): 890 ng/mL
level at 0.5 h (200 mg, Plasma concentration, geometric mean (CV%), 200 mg SC, day 18 cycle 2, 0.5 h after dosing, n = 2, LC-MS/MS): 1210 ng/mL
level at 1 h (200 mg, Plasma concentration, geometric mean (CV%), 200 mg SC, day 18 cycle 2, 1 h after dosing, n = 2, LC-MS/MS): 1470 ng/mL
level at 1.5 h (200 mg, Plasma concentration, geometric mean (CV%), 200 mg SC, day 18 cycle 2, 1.5 h after dosing, n = 2, LC-MS/MS): 1890 ng/mL
level at 2 h (200 mg, Plasma concentration, geometric mean (CV%), 200 mg SC, day 18 cycle 2, 2 h after dosing, n = 2, LC-MS/MS): 1360 ng/mL
level at 3.5 h (200 mg, Plasma concentration, geometric mean (CV%), 200 mg SC, day 18 cycle 2, 3.5 h after dosing, n = 2, LC-MS/MS): 911 ng/mL
level at 5 h (200 mg, Plasma concentration, geometric mean (CV%), 200 mg SC, day 18 cycle 2, 5 h after dosing, n = 2, LC-MS/MS): 690 ng/mL
level at 0.5 h (200 mg, Plasma concentration, geometric mean (CV%), 200 mg SC, day 18 cycle 4, 0.5 h after dosing, n = 2, LC-MS/MS): 1080 ng/mL
level at 1 h (200 mg, Plasma concentration, geometric mean (CV%), 200 mg SC, day 18 cycle 4, 1 h after dosing, n = 2, LC-MS/MS): 1410 ng/mL
level at 1.5 h (200 mg, Plasma concentration, geometric mean (CV%), 200 mg SC, day 18 cycle 4, 1.5 h after dosing, n = 2, LC-MS/MS): 1150 ng/mL
level at 2 h (200 mg, Plasma concentration, geometric mean (CV%), 200 mg SC, day 18 cycle 4, 2 h after dosing, n = 2, LC-MS/MS): 1500 ng/mL
level at 3.5 h (200 mg, Plasma concentration, geometric mean (CV%), 200 mg SC, day 18 cycle 4, 3.5 h after dosing, n = 2, LC-MS/MS): 1310 ng/mL
level at 5 h (200 mg, Plasma concentration, geometric mean (CV%), 200 mg SC, day 18 cycle 4, 5 h after dosing, n = 2, LC-MS/MS): 975 ng/mL
Tmax (200 mg, 200 mg SC, day 1 cycle 1, n = 4): 2.5 h
Tmax (200 mg, 200 mg SC, day 3 cycle 1, n = 4): 2 h
Tmax (200 mg, 200 mg SC, day 18 cycle 1, n = 3): 2.03 h
Tmax (200 mg, 200 mg SC, day 18 cycle 2, n = 2): 1.54 h
Tmax (200 mg, 200 mg SC, day 18 cycle 4, n = 2): 1.57 h
AUC(0-t) [1]: 11900 ng·h/mL
AUC(0-t) [2]: 12500 ng·h/mL
AUC(0-t) [3]: 10400 ng·h/mL
AUC(0-t) [4]: 8600 ng·h/mL
AUC(0-t) [5]: 26700 ng·h/mL
Cmax [1]: 2550 ng/mL
Cmax [2]: 2690 ng/mL
Cmax (300 mg, 300 mg SC, day 18 cycle 1, n = 3): 2880 ng/mL
Cmax [3]: 2780 ng/mL
Cmax [4]: 2140 ng/mL
Cmax [5]: 6830 ng/mL
level at 0.25 h (300 mg, Plasma concentration, geometric mean (CV%), 300 mg SC, day 1 cycle 1, 0.25 h after dosing, n = 3, LC-MS/MS): 1050 ng/mL
level at 0.75 h (300 mg, Plasma concentration, geometric mean (CV%), 300 mg SC, day 1 cycle 1, 0.75 h after dosing, n = 3, LC-MS/MS): 1970 ng/mL
level at 1.5 h (300 mg, Plasma concentration, geometric mean (CV%), 300 mg SC, day 1 cycle 1, 1.5 h after dosing, n = 3, LC-MS/MS): 2250 ng/mL
